Measured values as given in the supplement of paper PMC11061612.

Columns and labels:
Gemcitabine = compound: Nc1ccn([C@@H]2O[C@H](CO)[C@@H](O)C2(F)F)c(=O)n1 [Gemcitabine]; conditions: max 0.3 µM
Outline: (§1)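 Following 24 hours at 37°C and 5% CO2, cancer cell lines in 1536-well plates with 7.5 μl DMEM/F12 or RPMI and 10% FBS were dosed for 72 hours, final DMSO typically being 0.2%. CellTiter-Glo 2.0 luminescence, scaled between blank-well and DMSO-well means, gave the viability readout. Dose responses were fitted to a two-parameter logistic curve with a non-linear mixed effects model, and the single-agent IC50 was derived from this fit.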

Paclitaxel = compound: CC(=O)O[C@H]1C(=O)[C@@]2(C)[C@H]([C@H](OC(=O)c3ccccc3)[C@]3(O)C[C@H](OC(=O)[C@H](O)[C@@H](NC(=O)c4ccccc4)c4ccccc4)C(C)=C1C3(C)C)[C@]1(OC(C)=O)CO[C@@H]1C[C@@H]2O [Paclitaxel]; conditions: max 3 µM
Outline: as §1

Alisertib = compound: COc1cc(Nc2ncc3c(n2)-c2ccc(Cl)cc2C(c2c(F)cccc2OC)=NC3)ccc1C(=O)O [Alisertib]; conditions: max 10 µM
Outline: as §1

SN-38 = compound: CCc1c2c(nc3ccc(O)cc13)-c1cc3c(c(=O)n1C2)COC(=O)[C@]3(O)CC [SN-38]; conditions: max 0.3 µM
Outline: as §1

AZD4320 = compound: CN(CC[C@H](CSC1=CC=CC=C1)NC2=C(C=C(C=C2)S(=O)(=O)NC(=O)C3=CC=C(C=C3)N4CCC(CC4)[C@H](C5=CC=CC=C5C6=CC=C(C=C6)Cl)O)S(=O)(=O)C(F)(F)F)CCO [AZD4320]; conditions: max 1 µM
Outline: as §1

AZD7648 = compound: Cc1cc2ncnn2cc1Nc1ncc2c(n1)n(C1CCOCC1)c(=O)n2C [AZD7648]; conditions: max 10 µM
Outline: as §1

[1] = compound: O=C(Nc1ccc2[nH]nc(-c3ccncc3)c2c1)[C@@H]1CCN(CC(=O)N2CCN(c3ccc(-c4ncccn4)cc3)CC2)C1; conditions: max 5 µM
Outline: as §1

AZD5153 = compound: COc1nnc2ccc(N3CCC(c4ccc(OCCN5CCN(C)C(=O)[C@H]5C)cc4)CC3)nn12 [AZD5153]; conditions: max 1 µM
Outline: as §1

AZD2811 = compound: CCN(CCO)CCCOc1ccc2c(Nc3cc(CC(=O)Nc4cccc(F)c4)[nH]n3)ncnc2c1 [AZD2811]; conditions: max 1 µM
Outline: as §1

AZD5991 = compound: Cc1c2c(nn1C)CSCc1cc(n(C)n1)CSc1cc(c3ccccc3c1)OCCCc1c(C(=O)O)n(C)c3c-2c(Cl)ccc13 [AZD5991]; conditions: max 1 µM
Outline: as §1

Gefitinib = compound: COc1cc2ncnc(Nc3ccc(F)c(Cl)c3)c2cc1OCCCN1CCOCC1 [Gefitinib]; conditions: max 10 µM
Outline: as §1

Venetoclax = compound: CC1(C)CCC(CN2CCN(c3ccc(C(=O)NS(=O)(=O)c4ccc(NCC5CCOCC5)c([N+](=O)[O-])c4)c(Oc4cnc5[nH]ccc5c4)c3)CC2)=C(c2ccc(Cl)cc2)C1 [Venetoclax]; conditions: max 1 µM
Outline: as §1

Crizotinib = compound: C[C@@H](Oc1cc(-c2cnn(C3CCNCC3)c2)cnc1N)c1c(Cl)ccc(F)c1Cl [Crizotinib]; conditions: max 10 µM
Outline: as §1

Savolitinib = compound: C[C@@H](c1ccc2nccn2c1)n1nnc2ncc(-c3cnn(C)c3)nc21 [Savolitinib]; conditions: max 1 µM
Outline: as §1

Palbociclib = compound: CC(=O)c1c(C)c2cnc(Nc3ccc(N4CCNCC4)cn3)nc2n(C2CCCC2)c1=O [Palbociclib]; conditions: max 10 µM
Outline: as §1

Dasatinib = compound: CC1=C(C(=CC=C1)Cl)NC(=O)C2=CN=C(S2)NC3=CC(=NC(=N3)C)N4CCN(CC4)CCO [Dasatinib]; conditions: max 2 µM
Outline: as §1

Prexasertib = compound: COc1cccc(OCCCN)c1-c1cc(Nc2cnc(C#N)cn2)n[nH]1 [Prexasertib]; conditions: max 1 µM
Outline: as §1

MK-2206 = compound: NC1(c2ccc(-c3nc4ccn5c(=O)[nH]nc5c4cc3-c3ccccc3)cc2)CCC1 [MK-2206]; conditions: max 10 µM
Outline: as §1

Olaparib = compound: O=C(c1cc(Cc2n[nH]c(=O)c3ccccc23)ccc1F)N1CCN(C(=O)C2CC2)CC1 [Olaparib]; conditions: max 10 µM
Outline: as §1

AZD1390 = compound: CC(C)n1c(=O)n(C)c2cnc3cc(F)c(-c4ccc(OCCCN5CCCCC5)nc4)cc3c21 [AZD1390]; conditions: max 0.3 µM
Outline: as §1

AZD5363 = compound: C1CN(CCC1(C(=O)N[C@@H](CCO)C2=CC=C(C=C2)Cl)N)C3=NC=NC4=C3C=CN4 [AZD5363]; conditions: max 10 µM
Outline: as §1

AZD0156 = compound: CN(C)CCCOc1ccc(-c2ccc3ncc4c(c3c2)n(C2CCOCC2)c(=O)n4C)cn1 [AZD0156]; conditions: max 3 µM
Outline: as §1

AZD6738 = compound: C[C@@H]1COCCN1C2=NC(=NC(=C2)C3(CC3)[S@](=N)(=O)C)C4=C5C=CNC5=NC=C4 [AZD6738]; conditions: max 10 µM
Outline: as §1

Trametinib = compound: CC(=O)Nc1cccc(-n2c(=O)n(C3CC3)c(=O)c3c(Nc4ccc(I)cc4F)n(C)c(=O)c(C)c32)c1 [Trametinib]; conditions: max 1 µM
Outline: as §1

Etoposide = compound: COc1cc([C@@H]2c3cc4c(cc3[C@@H](O[C@@H]3O[C@@H]5CO[C@@H](C)O[C@H]5[C@H](O)[C@H]3O)[C@H]3COC(=O)[C@H]23)OCO4)cc(OC)c1O [Etoposide]; conditions: max 10 µM
Outline: as §1

AZD8186 = compound: C[C@@H](Nc1cc(F)cc(F)c1)c1cc(C(=O)N(C)C)cc2c(=O)cc(N3CCOCC3)oc12 [AZD8186]; conditions: max 10 µM
Outline: as §1

5-Fluorouracil = compound: O=c1[nH]cc(F)c(=O)[nH]1 [5-Fluorouracil]; conditions: max 20 µM
Outline: as §1

Doxorubicin = compound: COc1cccc2c1C(=O)c1c(O)c3c(c(O)c1C2=O)C[C@@](O)(C(=O)CO)C[C@@H]3O[C@H]1C[C@H](N)[C@H](O)[C@H](C)O1 [Doxorubicin]; conditions: max 1 µM
Outline: as §1

AZD1775 = compound: C=CCn1c(=O)c2cnc(Nc3ccc(N4CCN(C)CC4)cc3)nc2n1-c1cccc(C(C)(C)O)n1 [AZD1775]; conditions: max 3 µM
Outline: as §1

Carboplatin = compound: C1CC(C1)(C(=O)[O-])C(=O)[O-].N.N.[Pt+2] [Carboplatin]; conditions: max 10 µM
Outline: as §1

Taselisib = compound: Cc1nc(-c2cn3c(n2)-c2ccc(-c4cnn(C(C)(C)C(N)=O)c4)cc2OCC3)n(C(C)C)n1 [Taselisib]; conditions: max 10 µM
Outline: as §1

SRA737 = compound: N#Cc1cnc(Nc2cc(NC[C@H]3CNCCO3)c(C(F)(F)F)cn2)cn1 [SRA737]; conditions: max 10 µM
Outline: as §1

SG3199 = compound: CC1=CN2[C@@H](C1)C=NC3=CC(=C(C=C3C2=O)OC)OCCCCCOC4=C(C=C5C(=C4)N=C[C@@H]6CC(=CN6C5=O)C)OC [SG3199]; conditions: max 0.001 µM
Outline: as §1

Selumetinib = compound: Cn1cnc2c(F)c(Nc3ccc(Br)cc3Cl)c(C(=O)NOCCO)cc21 [Selumetinib]; conditions: max 10 µM
Outline: as §1

Lapatinib = compound: CS(=O)(=O)CCNCc1ccc(-c2ccc3ncnc(Nc4ccc(OCc5cccc(F)c5)c(Cl)c4)c3c2)o1 [Lapatinib]; conditions: max 10 µM
Outline: as §1

| Cell Line | IC50, cell viability 72 h (Gemcitabine) [nM] | IC50, cell viability 72 h (Paclitaxel) [nM] | IC50, cell viability 72 h (Alisertib) [nM] | IC50, cell viability 72 h (SN-38) [nM] | IC50, cell viability 72 h (AZD4320) [nM] | IC50, cell viability 72 h (AZD7648) [nM] | IC50, cell viability 72 h [1] [nM] | IC50, cell viability 72 h (AZD5153) [nM] | IC50, cell viability 72 h (AZD2811) [nM] | IC50, cell viability 72 h (AZD5991) [nM] | IC50, cell viability 72 h (Gefitinib) [nM] | IC50, cell viability 72 h (Venetoclax) [nM] | IC50, cell viability 72 h (Crizotinib) [nM] | IC50, cell viability 72 h (Savolitinib) [nM] | IC50, cell viability 72 h (Palbociclib) [nM] | IC50, cell viability 72 h (Dasatinib) [nM] | IC50, cell viability 72 h (Prexasertib) [nM] | IC50, cell viability 72 h (MK-2206) [nM] | IC50, cell viability 72 h (Olaparib) [nM] | IC50, cell viability 72 h (AZD1390) [nM] | IC50, cell viability 72 h (AZD5363) [nM] | IC50, cell viability 72 h (AZD0156) [nM] | IC50, cell viability 72 h (AZD6738) [nM] | IC50, cell viability 72 h (Trametinib) [nM] | IC50, cell viability 72 h (Etoposide) [nM] | IC50, cell viability 72 h (AZD8186) [nM] | IC50, cell viability 72 h (5-Fluorouracil) [nM] | IC50, cell viability 72 h (Doxorubicin) [nM] | IC50, cell viability 72 h (AZD1775) [nM] | IC50, cell viability 72 h (Carboplatin) [nM] | IC50, cell viability 72 h (Taselisib) [nM] | IC50, cell viability 72 h (SRA737) [nM] | IC50, cell viability 72 h (SG3199) [nM] | IC50, cell viability 72 h (Selumetinib) [nM] | IC50, cell viability 72 h (Lapatinib) [nM] |
| --- | --- | --- | --- | --- | --- | --- | --- | --- | --- | --- | --- | --- | --- | --- | --- | --- | --- | --- | --- | --- | --- | --- | --- | --- | --- | --- | --- | --- | --- | --- | --- | --- | --- | --- | --- |
| WSU-NHL (B-Cell Non-Hodgkin's Lymphoma) | 5.25 | < 3 | 73.6 | 2.41 | 81.4 | > 10000 | > 5000 | 45.9 | 134 | 321 | > 10000 | 64.2 | 4520 | > 1000 | 1280 | 12.6 | 15.2 | 543 | 7070 | > 300 | 809 | > 3000 | 998 | > 1000 | 160 | 397 | 5460 | 14.2 | 410 | > 10000 | 70.5 | 2310 | > 1 | > 10000 | 9550 |
| YAPC (Pancreatic Carcinoma) | 212 | > 3000 | > 10000 | 113 | > 1000 | > 10000 | > 5000 | > 1000 | > 1000 | > 1000 | > 10000 | > 1000 | > 10000 | > 1000 | > 10000 | > 2000 | 641 | > 10000 | > 10000 | > 300 | > 10000 | > 3000 | > 10000 | > 1000 | > 10000 | > 10000 | > 20000 | > 1000 | > 3000 | > 10000 | > 10000 | > 10000 | > 1 | > 10000 | > 10000 |
